This note sets out measurements from patent publication US11691989B2, “Macrocyclic indoles as Mcl-1 inhibitors” (ASCENTAGE PHARMA (SUZHOU) CO., LTD., priority 2018, dated 2023).

Molecules are shown by their SMILES. In brackets after ≈: the same amount, converted by molar mass. Read-outs that look alike come from different tables or passages of the source. Some results are limits rather than exact numbers.

Series [1] has as its target Mcl-1 protein (residues 171-323) (Homo sapiens (Human), UniProt Q07820). As to the kind of experiment: Inhibition of Mcl-1 by fluorescence polarization (FP) competitive binding assay with FAM-Bid tracer. Conditions: 2 nM FAM-Bid, 20 nM Mcl-1, 30 min, read-out: Mc1-1 (FP). In a few lines: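 Competitive FP binding of compounds against FAM-Bid tracer (final 2 nM) on Mcl-1 (final 20 nM) in PBS with 0.01% BGG and 0.01% Triton X-100, 5% final DMSO.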

Another series has as its system OPM-2 cells. As to the kind of experiment: Cell viability assay (OPM-2 cells), CCK-8. Format: cell-based. Conditions: 5% FBS. The gist of the method: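 OPM-2 myeloma cells (20000/well) incubated with serially diluted compound for 24 h at 37 °C, 5% CO2. Viability read by CCK-8 (4 h) absorbance at 450 nm, normalised to vehicle; IC50 from nonlinear regression.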
In another series the test system is NCI-H929 cells. As to the kind of experiment: Cell viability assay (NCI-H929 cells), CCK-8. Format: cell-based. The conditions noted are these: 5% FBS. The gist of the method:
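NCI-H929 cells (20000/well) exposed to serially diluted compounds for 24 h at 37 °C, 5% CO2. Viability by CCK-8, absorbance at 450 nm after 1-4 h, normalized to vehicle-treated cells. IC50 by nonlinear regression.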

The nature of series [2]: Microsome clearance assay, mouse. The class given is in vitro ADME. The conditions noted are these: 0.5 mg/ml protein, 1 mM NADPH, 60 minutes; for Mouse Liver Microsome Clint (μL/min/mg protein): mouse liver microsomes, 5 μM; for microsomal CLint at 5 μM: male, CD-1, mouse, pooled liver microsomes, pH 7.4, mouse liver microsomes, read-out: Mouse Liver Microsome Clint (μL/min/mg protein). In a few lines: (§1)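 Pooled liver microsomes (human, male Wistar rat, male CD-1 mouse) at 0.5 mg/ml protein in 0.1M sodium phosphate pH 7.4 with 5 μM test compound and 1 mM NADPH, incubated 60 minutes. Reactions quenched in ice-cold methanol; supernatant analysed by LC/MS/MS (electrospray).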
A general note: Liver microsomes are vesicles of endoplasmic reticulum, rich in cytochrome P450 enzymes.

Series [3] is described as follows: Microsome clearance assay, rat. Format: in vitro ADME. The conditions noted are these: 0.5 mg/ml protein, 1 mM NADPH, 60 minutes; for microsomal CLint at 5 μM: male, Wister, rat, pooled liver microsomes, pH 7.4, rat liver microsomes, read-out: Rat Liver Microsome Clint (μL/min/mg protein). In a few lines: as §1
Series [4] can be described thus: Microsome clearance assay, human. Conditions: 0.5 mg/ml protein, 1 mM NADPH, 60 minutes; for microsomal CLint at 5 μM: human, pooled liver microsomes, pH 7.4, human liver microsomes, read-out: Human Liver Microsome Clint (μL/min/mg protein). The class given is in vitro ADME. The gist of the method:
as §1

The subject of another series is MV-4-11 cells. Nature of the series: MV-4-11 cell viability assay, CCK-8. The class given is cell-based. The procedure: MV-4-11 cells were obtained from American Type Culture Collection (ATCC). […]
The effect of representative Compounds of the Disclosure on cell viability was determined using Cell Counting Kit-8 (CCK-8) assay according to the manufacturer's instructions. 95 μL of MV-4-11 cell suspension (20000 cells/well) in culture medium were seeded into 96-well plates and cultured 4 hrs. Each tested compound was serially diluted in DMSO, then 5 μL of the compound or DMSO was diluted in 95 μL medium once more. At last, 5 μL of the compound dilution was added to the corresponding well of the cell plate. After the addition of the tested compound, the cells were incubated at 37° C. in an atmosphere of 5% CO2 for 24 hrs. At the end, 10 μL of CCK-8 solution was added to each well of the plate and incubated for 1-4 hrs. The plates were read at 450 nm on the microplate reader (BioTek Synergy 1MF). The readings were normalized to the vehicle cells, and the IC50 was calculated by nonlinear regression analysis using GraphPad Prism 6 software.

The nature of series [5]: Kinetic solubility assay in PBS buffer. Conditions: PBS buffer, pH 6.5, aqueous buffer, thermodynamic from solid, read-out: Solubility (pH 6.5, μg/mL). Format: physicochemical. The procedure: Representative Compounds of the Disclosure were tested in a kinetic solubility assay in PBS buffer. PBS buffer was prepared by dissolving 4.86 g of potassium dihydrogen phosphate and 5.09 g of disodium hydrogen phosphate dodecahydrate in 1 L of ultrapure water (final pH 6.5). 0.5 mg of test sample was dissolved in 1 mL of methanol and the stock solution was transferred into 2 mL EP tube, and evaporated at 50° C. for 3 h. To the tube was added 1 mL of PBS buffer and the mixture was stirred and shaken for 1-2 h. The solution was allowed to stand overnight and then filtered before HPLC analysis. Another 1.5 mg of the sample was dissolved in 3 mL of methanol to prepare a calibration curve with a series of concentration range of 5-500 μM. The solubility of each sample was determined by the measured peak area in HPLC.

Chain of Mcl-1 protein (residues 171-323) (Q07820 171-323): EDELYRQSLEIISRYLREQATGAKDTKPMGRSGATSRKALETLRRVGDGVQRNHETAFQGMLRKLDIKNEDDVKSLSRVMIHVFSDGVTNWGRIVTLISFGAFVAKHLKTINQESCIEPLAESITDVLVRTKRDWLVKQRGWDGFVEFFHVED

On to `Cc1c(C(=O)O)n2c3ccc(Cl)c(c13)-c1c(nn(C)c1C)CSCc1cc(n(C)n1)CSc1cc(c3ccccc3c1)OCCC2` (atropisomer, axis not shown) [Cpd. No. 6, (R)-(Z)-1^5-chloro-1^3,2^1,2^5,6^1-tetramethyl-1^1H,2^1H,6^1H-10-oxa-4,8-dithia-1(4,1)-indola-2(4,3), 6(3,5)-dipyrazola-9(3,1)-naphthalenacyclotridecaphane-1^2-carboxylic acid], for which the IC50 is 0.009 µM in series [1]; 0.136 µM in the series with OPM-2 cells (24 hours); 0.039 µM with NCI-H929 cells (24 hrs); 29 nM in the series with MV-4-11 cells (read-out: MV-4-11 IC50 (5% FBS), MV-4-11 cells, 5% FBS, 24 hrs, CCK-8). Besides, the “Mouse Liver Microsome Clint (μL/min/mg protein)” value in series [2] is on record as 23.6 μL/min/mg protein. Also, the “Rat Liver Microsome Clint (μL/min/mg protein)” value in series [3] (rat liver microsomes, 5 μM) came to 21.0 μL/min/mg protein. Further, the “Human Liver Microsome Clint (μL/min/mg protein)” value in series [4] (human liver microsomes, 5 μM) is reported as less than 2.8 μL/min/mg protein.

For `Cc1c(C(=O)O)n2c3ccc(Cl)c(c13)-c1c(nn3c1CCC3)CSCc1cc(n(C)n1)CSc1cc(c3ccc(F)cc3c1)OCCC2` [Cpd. No. 2, (Z)-1^5-chloro-9^6-fluoro-1^3,6^1-dimethyl-2^5,2^6-dihydro-1^1H,2^4H,6^1H-10-oxa-4,8-dithia-1(4,1)-indola-2(3,2)-pyrrolo[1,2-b]pyrazola-6(3,5)-pyrazola-9(3,1)-naphthalenacyclotridecaphane-1^2-carboxylic acid], the IC50 was determined as 0.014 µM in series [1]; 0.22 µM with OPM-2 cells (Homo sapiens, OPM-2, 24 h); 0.053 µM in the series with NCI-H929 cells (Homo sapiens, NCI-H929, 24 h). For the same compound, the microsomal CLint at 5 μM in series [2] came to 53 µL/min/mg; in series [3] it was 31.2 µL/min/mg; in series [4], 18.2 µL/min/mg. Moreover, in series [5], the solubility was less than 1 µg/mL.

With `Cc1c(C(=O)O)n2c3ccc(Cl)c(c13)-c1c(nn3c1COCC3)CSCc1cc(n(C)n1)CSc1cc(c3ccc(F)cc3c1)OCCC2` [Cpd. No. 4, (Z)-1^5-chloro-9^6-fluoro-1^3,6^1-dimethyl-2^6,2^7-dihydro-1^1H,24H,6^1H-10-oxa-4,8-dithia-2(3,2)-pyrazolo[5,1-c][1,4]oxazina-1(4,1)-indola-6(3,5)-pyrazola-9(3,1)-naphthalenacyclotridecaphane-1^2-carboxylic acid], the IC50 in series [1] was 0.014 µM; in the series on OPM-2 cells (Homo sapiens, OPM-2, 24 h), 0.438 µM; with NCI-H929 cells (Homo sapiens, NCI-H929, 24 h), 0.049 µM. For the same compound, the microsomal CLint at 5 μM in series [2] turned out to be 41.2 µL/min/mg; in series [3], 19.8 µL/min/mg; in series [4], 13.8 µL/min/mg. For the same compound, in series [5], the solubility was less than 1 µg/mL.

As for `COCCn1nc2c(c1C)-c1c(Cl)ccc3c1c(C)c(C(=O)O)n3CCCOc1cc(cc3ccccc13)SCc1cc(nn1C)CSC2` [Cpd. No. 11, (Z)-1^5-chloro-2^1-(2-methoxyethyl)-1^3,2^5,6^1-trimethyl-1^1H,2^1H,6^1H-10-oxa-4,8-dithia-1(4,1)-indola-2(4,3),6(3,5)-dipyrazola-9(3,1)-naphthalenacyclotridecaphane-1^2-carboxylic acid], the IC50 in series [1] worked out at 0.015 µM; in the series on OPM-2 cells (Homo sapiens, OPM-2, 24 h) it was 0.171 µM; in the series on NCI-H929 cells (Homo sapiens, NCI-H929, 24 h), 0.068 µM. Further, the microsomal CLint at 5 μM in series [2] turned out to be 145 µL/min/mg; in series [3], 35.4 µL/min/mg; in series [4] it was 39.6 µL/min/mg. Further, in series [5], the solubility was less than 1 µg/mL.

`Cc1c(C(=O)O)n2c3ccc(C#N)c(c13)-c1c(nn(C)c1C)CSCc1cc(n(C)n1)CSc1cc(c3ccc(F)cc3c1)OCCC2` [Cpd. No. 20, (Z)-1^5-cyano-9^6-fluoro-1^3,2^1,2^5,6^1-tetramethyl-1^1H-1,2^1H,6^1H-10-oxa-4,8-dithia-1(4,1)-indola-2(4,3),6(3,5)-dipyrazola-9(3,1)-naphthalenacyclotridecaphane-1^2-carboxylic acid]: the IC50 in series [1] was 0.014 µM; with OPM-2 cells (Homo sapiens, OPM-2, 24 h), 0.613 µM; in the series with NCI-H929 cells (Homo sapiens, NCI-H929, 24 h), 0.611 µM; in the series with MV-4-11 cells (Homo sapiens, MV4-11, 24 h, read-out: MV-4-11 IC50 (5% FBS, nM), MV-4-11 cells, 5% FBS, 24 hrs, CCK-8), 45 nM.

Regarding `CNC(=O)Cn1nc(C)c2c1CSCc1cc(n(C)n1)CSc1cc(c3ccccc3c1)OCCCn1c(C(=O)O)c(C)c3c-2c(Cl)ccc31` [Cpd. No. 26, (Z)-1^5-chloro-1^3,2^3,6^1-trimethyl-2^1-(2-(methylamino)-2-oxoethyl)-1^1H,2^1H,6^1H-10-oxa-4,8-dithia-1(4,1)-indola-2(4,5),6(3,5)-dipyrazola-9(3,1)-naphthalenacyclotridecaphane-1^2-carboxylic acid], the IC50 in series [1] is 0.014 µM; with OPM-2 cells (Homo sapiens, OPM-2, 24 h) it was 0.992 µM; with NCI-H929 cells (Homo sapiens, NCI-H929, 24 h), 0.3 µM. Also, the values for the microsomal CLint at 5 μM in series [2], in series [3] and in series [4] were 41.2 µL/min/mg, 14.2 µL/min/mg and 12.8 µL/min/mg, respectively. Besides, the solubility in series [5] is less than 1 µg/mL.

As to `Cc1c(C(=O)O)n2c3ccc(Cl)c(c13)-c1c(nn(C)c1C)CN(S(C)(=O)=O)Cc1cc(n(C)n1)CSc1cc(c3ccc(F)cc3c1)OCCC2` [Cpd. No. 32, (Z)-1^5-chloro-9^6-fluoro-1^3,2^1,2^5,6^1-tetramethyl-4-(methylsulfonyl)-1^1-H,2^1H, 6′H-10-oxa-8-thia-4-aza-1(4,1)-indola-2(4,3),6(3,5)-dipyrazola-9(3,1)-naphthalenacyclotridecaphane-1^2-carboxylic acid], the IC50 in series [1] stood at 0.036 µM; with OPM-2 cells (24 hours), 0.542 µM; in the series with NCI-H929 cells (24 hrs) it was 0.213 µM. Besides, in series [2], the “Mouse Liver Microsome Clint (μL/min/mg protein)” value is reported as 35.0 μL/min/mg protein. The microsomal CLint at 5 μM is 10.8 µL/min/mg in series [3] and 4.4 µL/min/mg in series [4]. Besides, the solubility in series [5] was more than 400 µg/mL.

With `Cc1c(C(=O)O)n2c3ccc(Cl)c(c13)-c1c(nn(C)c1C(F)F)CN(S(C)(=O)=O)Cc1cc(n(C)n1)CSc1cc(c3ccc(F)cc3c1)OCCC2` [Cpd. No. 45, (Z)-1^5-chloro-2^5-(difluoromethyl)-9^6-fluoro-1^3,2^1,6^1-trimethyl-4-(methylsulfonyl)-1^1H,2^1H,6^1H-10-oxa-8-thia-4-aza-1(4,1)-indola-2(4,3),6(3,5)-dipyrazola-9(3,1)-naphthalenacyclotridecaphane-1^2-carboxylic acid], the IC50 in series [1] is 0.016 µM; in the series with OPM-2 cells (Homo sapiens, OPM-2, 24 h), 0.35 µM; in the series with NCI-H929 cells (Homo sapiens, NCI-H929, 24 h), 0.253 µM. The figures for the microsomal CLint at 5 μM in series [2], in series [3] and in series [4] were 21.4 µL/min/mg, 12.6 µL/min/mg and less than 2.8 µL/min/mg, respectively. Further, the solubility in series [5] worked out at 94 µg/mL (≈ 119 µM).

As for `Cc1c(C(=O)O)n2c3ccc(Cl)c(c13)-c1c(nn(C)c1C)CN(Cc1ncco1)Cc1cc(n(C)n1)CSc1cc(c3ccc(F)cc3c1)OCCC2` [Cpd. No. 52, (Z)-1^5-chloro-9^6-fluoro-1^3,2^1,2^5,6^1-tetramethyl-4-(oxazol-2-ylmethyl)-1^1H,2^1H,6^1H-10-oxa-8-thia-4-aza-1(4,1)-indola-2(4,3),6(3,5)-dipyrazola-9(3,1)-naphthalenacyclotridecaphane-1^2-carboxylic acid], the IC50 in series [1] stood at 0.021 µM; in the series on OPM-2 cells (Homo sapiens, OPM-2, 24 h) it was 0.699 µM; with NCI-H929 cells (Homo sapiens, NCI-H929, 24 h), 0.087 µM. Also, the microsomal CLint at 5 μM in series [2] was 53 µL/min/mg; in series [3], 29.8 µL/min/mg; in series [4], 28.4 µL/min/mg. Further, the solubility in series [5] stood at 4 µg/mL (≈ 5.3 µM).
